Data from patent US4317768A, “Dihydropyridine derivatives as stabilizers for vinyl chloride polymers” (priority 1977, dated 1982).

Assay: Static thermostability (GARDNER method), rigid PVC sheets, 210° C., 0.3 part stabilizer
Procedure: This study was carried out according to the GARDNER method, described in British Pat. No. 1,489,685.
The reference substance was 2-phenyl-indole, a well-known and widely used stabilizer.
The stabilizer (dihydropyridine or 2-phenyl-indole) and the other usual ingredients were mixed with powdered vinyl resins and the mixtures were calendered at a temperature of 160° C. to give rigid sheets.
The sheets were then heated in a thermostated oven (185° C. or 210° C.) for different intervals of time until incipient carbonization.
The coloration of the samples was compared to a standard scale of coloration, known as the GARDNER scale and was expressed in terms of the reference figures of the GARDNER scale.
This study was carried out with the following resin:
Polyvinyl chloride resin
SL 2016 is a solution of zinc-2-ethyl-hexanoate in a mixture of hydrocarbons boiling between 158° C. and 184° C.
The first trial was carried out at 210° C. with a resin containing 0.3 part by weight of stabilizer, the sheets being removed from the oven every three minutes over a period of 21 minutes.

Row | thermostabilizing power compared to 2-phenyl-indole, in words (210° C.) | Structure (SMILES) | coloration, GARDNER scale (0 min) | coloration, GARDNER scale (3 min) | coloration, GARDNER scale (6 min) | coloration, GARDNER scale (9 min) | coloration, GARDNER scale (12 min) | coloration, GARDNER scale (15 min) | coloration, GARDNER scale (18 min) | coloration, GARDNER scale (21 min)
1 | greatly superior to 2-phenyl-indole | C=CCCC1=C(C(=O)OC)CC(C(=O)OC)=C(CCC=C)N1 [Compound 17, 2,6-Di-(3-butenyl)-3,5-dicarbomethoxy-1,4-dihydropyridine] | 1 | 1 | 2 | 8 | 9 | Burnt | – | –
2 | – | COC(=O)C1=C(c2ccccc2)NC(c2ccccc2)=C(C(=O)OC)C1 [Compound 18, 2,6-Diphenyl-3,5-dicarbomethoxy-1,4-dihydropyridine] | 1 | 1 | 2 | 2 | 2 | 3 | 6 | Burnt
3 | – | CC1=C(C(=O)OCCOCCCl)CC(C(=O)OCCOCCCl)=C(C)N1 [Compound 19, 2,6-Dimethyl-3,5-di-(2"-carbochloro-2'ethoxy-ethoxy)-1,4-dihydropyridine] | 1 | 1 | 1 | 2 | 3 | 10 | 13 | Burnt
4 | – | CCCCCCCCCCCCCC1=C(C(=O)OC)CC(C(=O)OC)=C(CCCCCCCCCCCCC)N1 [Compound 20, 2,6-Ditridecyl-3,5-dicarbomethoxy-1,4-dihydropyridine] | 1 | 1 | 1.5 | 2 | 2 | 2.5 | 4 | 7
5 | – | CC1=C(C(=O)OCC=Cc2ccccc2)CC(C(=O)OCC=Cc2ccccc2)=C(C)N1 [Compound 22, 2,6-Dimethyl-3,5-dicarbocinnamyloxy-1,4-dihydropyridine] | 1 | 1 | 2 | 4 | 11 | Burnt | – | –
6 | – | COC(=O)C1=C(C)NC(C)=C(C(=O)OC)C1c1ccccc1 [Compound 23, 2,6-Dimethyl-3,5-dicarbomethoxy-4-phenyl-1,4-dihydropyridine] | 1 | 2 | 3 | 13 | 14 | 15 | Burnt | –
7 | – | COCCOC(=O)C1=C(C)NC(C)=C(C(=O)OCCOC)C1 [Compound 25] | 1 | 1 | 1 | 1 | 1 | 4 | 11 | 17
8 | – | CCOCCOC(=O)C1=C(C)NC(C)=C(C(=O)OCCOCC)C1 [Compound 26] | 1 | 1 | 1 | 1 | 1.5 | 3 | 11 | Burnt
